Paper PMC3234531 (2011)

Assays:
[1] = molecular target: IKca channel (intermediate conductance potassium channel) (Homo sapiens, UniProt O15554); experiment: modified biotin switch; assay type: cell-based
[2] = molecular target: cystathionine γ-lyase (CSE); experiment: CSE activity assay after pre-incubation with the NO donor S-nitroso-glutathione; assay type: biochemical

Chain of IKca channel (intermediate conductance potassium channel) (O15554 whole entry): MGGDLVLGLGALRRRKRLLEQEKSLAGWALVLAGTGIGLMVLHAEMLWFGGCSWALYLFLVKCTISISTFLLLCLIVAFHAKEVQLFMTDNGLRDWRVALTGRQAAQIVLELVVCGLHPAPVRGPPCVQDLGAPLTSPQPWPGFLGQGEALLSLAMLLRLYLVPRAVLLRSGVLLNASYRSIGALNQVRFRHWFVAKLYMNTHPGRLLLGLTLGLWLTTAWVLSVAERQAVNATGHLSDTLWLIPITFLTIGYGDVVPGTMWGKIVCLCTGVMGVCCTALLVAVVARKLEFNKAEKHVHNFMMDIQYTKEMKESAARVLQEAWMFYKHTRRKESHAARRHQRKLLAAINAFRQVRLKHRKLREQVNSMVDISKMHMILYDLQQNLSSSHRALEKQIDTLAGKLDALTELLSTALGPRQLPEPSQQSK

Structure (SMILES)	modified biotin switch (S-sulfhydration) assay, DTT-sensitive [1]	IC50 [2]
S [H2S]	IKca channels from human aortic endothelial cells are sulfhydrated by NaHS in a DTT-sensitive fashion	
[N]=O [NO]		~100 nM
